Test results published in patent US20250195504A1, “NALTREXAMINE DERIVATIVES BEARING 5-MEMBER HETEROCYCLIC RING SYSTEMS AND OPIOID RECEPTOR MODULATORS” (VIRGINIA COMMONWEALTH UNIVERSITY, priority 2022, published 2025).
Counter-ions that a name gives are not always drawn. Like-named read-outs stand apart in the source and are kept apart here.

Legend:
[1] = test system: Serotonin receptor, dopamine receptor, biogenic amine transporters; experiment: side effect profiling panel binding; conditions: up to 10 μM, except the targets listed
Caco-2 permeability = conditions: human, Caco-2, pH 7.4
KOR = KOR (Mus musculus, UniProt P33534); experiment: competitive radioligand binding assay, KOR ([3H]diprenorphine, CHO cell membranes); set-up: expressed in transfected cells; host or cells: CHO; conditions: Tables A, B; read-out: Binding Affinity Ki (nM) ± SEM, KOR
[2] = Metabolic Stability (half-life), rat
MOR [3] = molecular target: T1, MOR (Mus musculus, UniProt P42866); experiment: MOR [35S]GTPγS functional assay (MOR-CHO membranes); assay type: biochemical; set-up: expressed in transfected cells; host or cells: CHO; conditions: Tables A, B
Description: The [^35S]GTPγS functional assay was conducted to determine the efficacy of the compounds at the MOR. […] The Bradford protein assay was utilized to determine and adjust the concentration of protein required for the assay. Nonspecific binding was determined with 20 μM unlabeled GTPγS. Furthermore, 3 μM DAMGO was included in the assay as the maximally effective concentration of a full agonist for the MOR. After incubation, the bound radioactive ligand was separated from the free radioligand by filtration through a GF/B glass fiber filter paper and rinsed three times with ice-cold wash buffer (50 mM Tris-HCl, pH 7.2) using the Brandel harvester. Bound radioactivity was determined by liquid scintillation counting. All assays were determined in duplicate and repeated at least three times. Net stimulated [^35S]GTPγS binding was defined as agonist-stimulated minus basal binding in the absence of agonist. Percent of DAMGO-stimulated [^35S]GTPγS binding was defined as (net-stimulated binding by ligand/net-stimulated binding by 3 μM DAMGO)×100%.
Results were reported as mean values ±SEM.
The [^35S]-GTPγS binding assay was carried out as well to determine the functionality on the MOR of each compound. […] The [^35S]GTPγS functional assay was conducted to determine the efficacy of the compounds at the MOR, KOR and DOR. […] The Bradford protein assay was utilized to determine and adjust the concentration of protein required for the assay. Nonspecific binding was determined with 20 μM unlabeled GTPγS. Furthermore, 3 μM DAMGO/U50488H/SNC80 was included in the assay as the maximally effective concentration of a full agonist for the MOR/KOR/DOR. After incubation, the bound radioactive ligand was separated from the free radioligand by filtration through a GF/B glass fiber filter paper using a Brandel harvester. Bound radioactivity was determined by liquid scintillation counting. All assays were determined in duplicate and repeated at least three times. Net stimulated [^35S]GTPγS binding was defined as agonist-stimulated minus basal binding in the absence of agonist. Percent of DAMGO/U50488H/SNC80 stimulated [^35S]GTPγS binding was defined as (net-stimulated binding by ligand/net-stimulated binding by 3 μM DAMGO U50488H/SNC80)×100%.

MOR [4] = molecular target: T1, MOR; conditions: read-out: Binding Affinity Ki (nM) ± SEM, MOR; Tables A, B
male Swiss Webster mice [5] = experiment: warm-water tail immersion assay, antagonism of morphine's antinociception; assay type: in vivo, mouse; conditions: for Tail flick assay (dose response) AD50: 95% CL
Description: Following this single dose assessment, in vivo dose-response studies with eight identified antagonists were conducted.
(§1) Antinociceptive effect of synthesized compounds was determined using the warm-water tail immersion assay. Swiss Webster mice (six male mice for each group, 25-35 g, 6-8 weeks old) were used in this assay. Antinociception for all compounds was examined in male Swiss Webster mice. […] To prevent tissue damage, a 10 s maximum cutoff time was imposed. Antinociceptive response was calculated as the percentage of maximum possible effect (% MPE), where % MPE=[(test−control latency)/(10−control latency)]×100.
(§2) Warm-water tail immersion assay is a well-established assay for evaluating opioid analgesics, especially MOR agonists. […] In this context, all 24 compounds were first evaluated for their acute antinociception tail-withdrawal assay (FIG. 5A).
(§3) The tail-withdrawal test was performed using a water bath with the temperature maintained at 56±0.1° C. Baseline latency was measured before any injections. Each mouse was gently wrapped in a cloth with only the tail exposed. The distal one-third of the tail was immersed perpendicularly in water, and the mouse rapidly flicked the tail from the bath was seen as the first sign of discomfort. The duration of time the tail remained in the water bath was counted as the baseline latency. Untreated mice with baseline latency reaction times ranging from 2 to 4 seconds were used. Test latency was obtained 20 min later after each injection. A 10-second maximum cutoff latency was used to prevent any tissue damage. Antinociception was quantified as the percentage of maximal possible effect (% MPE), which was calculated as % MPE=[(test latency−control latency)/(10−control latency)]×100. The % MPE value was calculated for each mouse using 6 mice per group. Testing compounds were given 10 mg/kg (s.c.) to each mouse.

hNK1 = hNK1 (Homo sapiens, UniProt P25103); experiment: side effect profiling, hNK1; assay type: binding; conditions: at 10 uM
Potassium channel hERG = Potassium channel hERG (Homo sapiens, UniProt Q12809); experiment: side effect profiling, hERG channel; conditions: for hERG channel binding: at 10 uM
hNOP = hNOP (Homo sapiens, UniProt P41146); experiment: side effect profiling, hNOP; assay type: binding; conditions: for hNOP binding: at 10 uM
hα1D = hα1D (Homo sapiens, UniProt P25100); experiment: side effect profiling, hα1D; assay type: binding
h5-HT1b = h5-HT1b (Homo sapiens, UniProt P28222); experiment: side effect profiling, h5-HT1b; assay type: binding; conditions: for h5-HT1b binding: at 10 uM
male Swiss Webster mice [6] = experiment: warm-water tail immersion (tail flick / tail-withdrawal) assay, antinociception; assay type: in vivo, mouse; conditions: mice
Description: In this assay, the duration for which mice kept their tails in the warm water was recorded.
All thirty-six compounds' antinociception were examined in tail immersion assay first to preclude any opioid receptor agonists.
as §1, with “Swiss” for “Antinociceptive effect of synthesized compounds was determined using the warm-water tail immersion assay. Swiss”
as §2, §3

MOR-CHO cells = molecular target: T2, MOR-CHO cells (Mus musculus, UniProt P42866); experiment: Calcium flux on MOR-CHO cells, acting as antagonists against DAMGO; assay type: cell-based
T2 construct: expressed in transfected cells; host or cells: CHO

Na channel = experiment: side effect profiling, Na channel; assay type: binding

For `O=C(N[C@H]1CC[C@@]2(O)[C@H]3Cc4ccc(O)c5c4[C@@]2(CCN3CC2CC2)[C@H]1O5)c1nccs1` [NTZ, 17-Cyclopropylmethyl-3,14β-dihydroxy-4,5α-epoxy-6α-(2′-thiazolylcarboxamido)morphinan hydrochloride], the “side effect profiling, binding to panel” value [1] was “No significant binding up”, the efflux ratio at 1 h, 10 μM (Caco-2 permeability) was 2.5 and the Ki (KOR) was 1.3 ± 0.12 nM. For the same compound, the half-life [2] was over 1 h, the “35S-GTP[γS]-Binding MOR Efficacy (% max of DAMGO)” value (MOR [3]) was 11.29 ± 1.30% and the EC50 (MOR [3]; read-out: 35S-GTP[γS]-Binding MOR Potency EC50) was 2.16 ± 0.38 nM. The Ki (MOR [4]) was 0.25 ± 0.03 nM, the “Tail flick assay, antagonism of morphine's antinociceptive effect (in words)” value (male Swiss Webster mice [5]; mice, single dose 10 mg/kg) was “significantly antagonized morphine's antinociceptive” and the “Tail flick assay (dose response) AD50” value (male Swiss Webster mice [5]; mice) was “The AD50 of VZMN283 was determined as 0.043 mg/kg”.

In the case of `O=C(N[C@H]1CCC2(O)C3Cc4ccc(O)c5c4[C@@]2(CCN3CC2CC2)[C@H]1O5)c1ccc[nH]1` (stereo partly drawn) [Example 1 compound 1, 17-Cyclopropylmethyl-3,14β-dihydroxy-4,5α-epoxy-6a-[(2′-pyrrolyl)carboxamido]morphinan hydrochloride], the hNK1 binding (hNK1) is reported as 89%, the Ki (Potassium channel hERG) is reported as 8600 nM and the hERG channel binding (Potassium channel hERG) is reported as “Potassium channel hERG (52% at 10 uM),”. For the same compound, the “side effect profiling, binding to panel” value [1] was “No significant binding up”, the Ki (hNOP) was 1440 nM and the hNOP binding (hNOP) was 59%. For the same compound, the half-life [2] was over 1 h, the Ki (hα1D) was 771 nM and the hα1D binding (hα1D; at 10 uM) was 84%. The “35S-GTP[γS]-Binding MOR Efficacy (% max of DAMGO)” value (MOR [3]) was 12.11 ± 2.64%, the Ki (h5-HT1b) was 482 nM and the h5-HT1b binding (h5-HT1b) was 85%. The “Tail flick assay, anti-nociceptive effect (in words)” value (male Swiss Webster mice [6]; single dose, dose printed with the value) was “No anti-nociceptive effect up to 100 mg/kg” and the “Tail flick assay (dose response) AD50” value (male Swiss Webster mice [5]; mice) was “The AD50 of NAY was determined as 4.71 (1.61- mg/kg”.

For `O=C(N[C@H]1CC[C@@]2(O)[C@H]3Cc4ccc(O)c5c4[C@@]2(CCN3CC2CC2)[C@H]1O5)c1ccsc1` [Example 1 compound 31, 17-Cyclopropylmethyl-3,14β-dihydroxy-4,5α-epoxy-6α-(3′-thienylcarboxamido)morphinan hydrochloride], the hNK1 binding (hNK1) was “hNK1 (80% at 10 uM)”, the hERG channel binding (Potassium channel hERG) was “hERG channel (58% at 10 uM)” and the half-life [2] was 0.733 h. For the same compound, the “35S-GTP[γS]-Binding MOR Efficacy (% max of DAMGO)” value (MOR [3]) was 30.66 ± 4.44%, the h5-HT1b binding (h5-HT1b) was “h5-HT1b (98% at 10 uM)” and the IC50 (MOR-CHO cells) was 28.9 nM. The “antagonism of morphine's antinociceptive effect (in words)” value (male Swiss Webster mice [5]; Example 1 compounds, 10 mg/kg s.c. in the presence of morphine (10 mg/kg)) was “significantly antagonized morphine's antinociceptive effect” and the “AD50 mg/kg (95% CL) to antagonize morphine mediated antinociception” value (male Swiss Webster mice [5]; Example 1 compounds, s.c., mice, morphine 10 mg/kg) was 1.51 mg/kg.

`O=C(N[C@H]1CC[C@@]2(O)[C@H]3Cc4ccc(O)c5c4[C@@]2(CCN3CC2CC2)[C@H]1O5)c1cccs1` [Example 1 compound 25, 17-Cyclopropylmethyl-3,14β-dihydroxy-4,5α-epoxy-6α-(2′-thienylcarboxamido)morphinan hydrochloride] showed a Ki (hNOP) of 6400 nM, a hNOP binding (hNOP) of 60% and a half-life [2] of over 1 h. For the same compound, the EC50 (MOR [3]; 35S-GTP[γS]-Binding MOR Potency EC50, nM) was 0.49 ± 0.09 nM, the “35S-GTP[γS]-Binding MOR Efficacy (% max of DAMGO)” value (MOR [3]) was 21.81 ± 6.17% and the Ki (Na channel) was 9900 nM. The Na channel binding (Na channel; at 10 uM) was 55%, the IC50 (MOR-CHO cells) was 26.7 nM and the “Tail flick assay, percentage maximum possible effect (% MPE)” value (male Swiss Webster mice [6]; single dose 10 mg/kg) was “effect (% MPE) of NAT (10 mg/kg) was 15.2”.
